Patent US4584404A, “Substituted phenoxyphenylproply dimethylamines” (priority 1983, dated 1986)
“Also recorded” adds a separate entry of the source.

Tests used:
[1] = system: serotonin uptake (synaptosomes from rat brain); test: blockade of serotonin (5HT) uptake by synaptosomes from rat brain, in vitro, radioactive labelled compounds; type: biochemical; conditions: serotonin 0.1 μM
Excerpt: (§1) This blockade is shown both in vitro with radioactive labelled compounds to determine the amount of monoamine uptake by synaptosomes from rat brain, and in vivo by a variety of methods. Among the physiologically active monoamines whose uptake is blocked by the compounds of this invention are included particularly serotonin (5HT) and norepinephrine(3,4-dihydroxyphenylethanolamine). […] Tables 1 and 2 which follow set forth the results of some of the in vitro determinations of the blockade of monoamine uptake by the compounds of this invention. In the tables, column 1 gives the R substituent on the 3-phenylpropylamine and columns 2-4, the concentration in micrograms per ml. that blocks the uptake by 50 percent of the monoamines--norepinephrine, serotonin, and dopamine. At the head of each column is given the concentration of the particular monoamine used in the experiment.

NE uptake and 5HT uptake = test: NE/5HT uptake inhibition selectivity; type: biochemical, rat; conditions: for NE/5HT IC50 uptake ratio: ratio NE/5HT
Excerpt: as §1

[2] = system: norepinephrine uptake (synaptosomes from rat brain); test: blockade of norepinephrine uptake by synaptosomes from rat brain, in vitro, radioactive labelled compounds; type: biochemical; conditions: norepinephrine 0.48 μM
Excerpt: as §1

[3] = system: dopamine uptake (synaptosomes from rat brain); test: blockade of dopamine uptake by synaptosomes from rat brain, in vitro, radioactive labelled compounds; type: biochemical; conditions: dopamine 0.2 μM
Excerpt: as §1

[4] = humans; cited from earlier work

SMILES | Concentration that blocks 50% of serotonin uptake [1] | NE/5HT IC50 uptake ratio (NE uptake and 5HT uptake) | Concentration that blocks 50% of norepinephrine uptake [2] | Concentration that blocks 50% of dopamine uptake [3] | uptake inhibition selectivity in words (NE uptake and 5HT uptake; 5HT vs NE, listed as IV) | antidepressant effect [4]
CN(C)CCC(Oc1ccc(Cl)cc1)c1ccccc1 (stereo not drawn) [p-chlorophenoxy, N,N-dimethyl 3-phenyl-3-(p-chlorophenoxy)-propylamine] | .03 µg/mL | 9.88 | .3 µg/mL | 1.3 µg/mL |  | 
Cc1ccccc1OC(CCN(C)C)c1ccccc1 (stereo not drawn) [o-tolyloxy, 3-o-tolyloxy-3-phenylpropyl dimethylamine] | 2 µg/mL | .5 | .35 µg/mL | 0.8 µg/mL | selective NE uptake inhibitors; also recorded: blocks NE preferentially | 
CNCCC(Oc1ccc(C(F)(F)F)cc1)c1ccccc1 (stereo not drawn) [fluoxetine, 3-phenyl-3-(p-trifluoromethyl)phenoxypropyl methylamine] |  |  |  |  |  | highly potent antidepressant in humans
Cc1ccc(OC(CCN(C)C)c2ccccc2)cc1 (stereo not drawn) [p-tolyloxy, N,N-dimethyl 3-(p-tolyloxy)-3-phenylpropylamine] | .4 µg/mL | 5.83 | .015 µg/mL | > 100 µg/mL |  | 
CN(C)CCC(Oc1ccc(C(F)(F)F)cc1)c1ccccc1 (stereo not drawn) [p-trifluoromethylphenyloxy, N,N-dimethyl-3-(p-trifluoromethylphenoxy)-3-phenylpropylamine] | .16 µg/mL | 7.19 | 70 µg/mL | > 100 µg/mL |  | 
